The conditions of data set [1]: in animals as well as in humans; cited from earlier work.
For data set [2] the following is noted: adrenalin alone 30 μg/kg intramuscular, anesthetized rabbits.
For data set [3] the following is noted: adrenalin alone 30 μg/kg intramuscular, anesthetized rabbits. The source holds these as a separate data set.

These results are taken from US10952987B2 (BIOPROJET, priority 2012, dated 2021).

`CNC[C@H](O)c1ccc(O)c(O)c1` [adrenalin]: the “delay of the bulk of the increase in plasma levels of adrenalin after injection” value in data set [1] was “about 20 minutes”. Moreover, in data set [2], the “AUC of second plasma adrenalin peak relative to the first one” value is given as “about 20 times” and the “time of first narrow peak in plasma adrenalin level” value is “a few minutes following the injection”. Also, the “time of second, much larger peak in plasma adrenalin level” value in data set [2] (later than first peak) is 20 min. In addition, in data set [3], the hypertensive episodes result is reported as “two hypertensive episodes occurred at the times of the plasma adrenalin peaks”.
